By pIC50 is commonly meant −log10 of the IC50, conventionally taken in molar units.

From US20090270390A1, “PYRIMIDINE DERIVATIVES” (AstraZeneca, priority 2006, published 2009) come the findings set out here.

In assay [1] the test system is phosphorylation of Serine 473 in Akt in MDA-MB-468 human breast adenocarcinoma cell line. In words: In vitro phospho-Ser473 Akt assay, Test (c). The following applies: MDA-MB-468 cells, read-out: IC50 (inhibition of Serine 473 phosphorylation in Akt). The format is cell-based. On the procedure:
This assay determines the ability of test compounds to inhibit phosphorylation of Serine 473 in Akt as assessed using Acumen Explorer technology (TTP LabTech Limited, Royston, Herts, SG8 6EE, UK), a plate reader that can be used to rapidly quantitate features of images generated by laser-scanning.
A MDA-MB-468 human breast adenocarcinoma cell line (LGC Promochem, Teddington, Middlesex, UK, Catalogue No. HTB-132) was routinely maintained at 37° C. with 5% CO2 up to a confluency of 70-90% in DMEM containing 10% FCS and 1% L-glutamine.
For the assay, the cells were detached from the culture flask using ‘Accutase’ (Innovative Cell Technologies Inc., San Diego, Calif., USA; Catalogue No. AT104) using standard tissue culture methods and resuspended in media to give 5.5×10^4 cells per ml. Aliquots (90 μl) were seeded into each of the inner 60 wells of a black ‘Costar’ 96-well plate (Corning Inc., NY, USA; Catalogue No. 3904) to give a density of ˜5000 cells per well. Aliquots (90 μl) of culture media were placed in the outer wells to prevent edge effects. [An alternative cell handling procedure involved the maintenance of the cells in a ‘SelecT’ robotic device (The Automation Partnership, Royston, Herts SG8 5WY, UK). Cells were resuspended in media to give 5×10^4 cells per ml. Aliquots (100 μl) were seeded into the wells of a black ‘Costar’ 96-well plate.] […]

The next assay has as its target T1, p110α Type Ia human PI3K (Homo sapiens, UniProt P42336).
T1 construct: full length DNA of each of the p110α, p110β and p110δ Type Ia human PI3K p110 isoforms; 6-His; made in house; Grp1 PH domain made in E. coli
Nature of the assay: In vitro PI3K enzyme assay (AlphaScreen), Test (a). As to conditions: read-out: IC50 versus p110α Type Ia human PI3K. The class given is biochemical. From the text:
The assay used AlphaScreen technology (Gray et al., Analytical Biochemistry, 2003, 313: 234-245) to determine the ability of test compounds to inhibit phosphorylation by recombinant Type I PI3K enzymes of the lipid PI(4,5)P2.
DNA fragments encoding human PI3K catalytic and regulatory subunits were isolated from cDNA libraries using standard molecular biology and PCR cloning techniques. The selected DNA fragments were used to generate baculovirus expression vectors. In particular, full length DNA of each of the p110α, p110β and p110δ Type Ia human PI3K p110 isoforms (EMBL Accession Nos. HSU79143, S67334, Y10055 for p110α, p110β and p110δ respectively) were sub-cloned into a pDEST10 vector (Invitrogen Limited, Fountain Drive, Paisley, UK). The vector is a Gateway-adapted version of Fastbac 1 containing a 6-His epitope tag. […]
Biotinylated-DiC8-PI(3,4,5)P3 (50 nM; Cell Signals Inc., Catalogue No. 107), recombinant purified GST-Grp1 PH protein (2.5 nM) and AlphaScreen Anti-GST donor and acceptor beads (100 ng; Packard Bioscience Limited, Station Road, Pangbourne, Berkshire, UK, Catalogue No. 6760603M) were added and the assay plates were left for about 5 to 20 hours at room temperature in the dark. The resultant signals arising from laser light excitation at 680 nm were read using a Packard AlphaQuest instrument. […]
A general note: In Alpha technology, singlet oxygen from a donor bead excites a nearby acceptor bead.

The structures appear in SMILES notation. pIC50: −log10 of the molar value.

T1 sequence (P42336 whole entry, the tested form may be a part, canonical isoform): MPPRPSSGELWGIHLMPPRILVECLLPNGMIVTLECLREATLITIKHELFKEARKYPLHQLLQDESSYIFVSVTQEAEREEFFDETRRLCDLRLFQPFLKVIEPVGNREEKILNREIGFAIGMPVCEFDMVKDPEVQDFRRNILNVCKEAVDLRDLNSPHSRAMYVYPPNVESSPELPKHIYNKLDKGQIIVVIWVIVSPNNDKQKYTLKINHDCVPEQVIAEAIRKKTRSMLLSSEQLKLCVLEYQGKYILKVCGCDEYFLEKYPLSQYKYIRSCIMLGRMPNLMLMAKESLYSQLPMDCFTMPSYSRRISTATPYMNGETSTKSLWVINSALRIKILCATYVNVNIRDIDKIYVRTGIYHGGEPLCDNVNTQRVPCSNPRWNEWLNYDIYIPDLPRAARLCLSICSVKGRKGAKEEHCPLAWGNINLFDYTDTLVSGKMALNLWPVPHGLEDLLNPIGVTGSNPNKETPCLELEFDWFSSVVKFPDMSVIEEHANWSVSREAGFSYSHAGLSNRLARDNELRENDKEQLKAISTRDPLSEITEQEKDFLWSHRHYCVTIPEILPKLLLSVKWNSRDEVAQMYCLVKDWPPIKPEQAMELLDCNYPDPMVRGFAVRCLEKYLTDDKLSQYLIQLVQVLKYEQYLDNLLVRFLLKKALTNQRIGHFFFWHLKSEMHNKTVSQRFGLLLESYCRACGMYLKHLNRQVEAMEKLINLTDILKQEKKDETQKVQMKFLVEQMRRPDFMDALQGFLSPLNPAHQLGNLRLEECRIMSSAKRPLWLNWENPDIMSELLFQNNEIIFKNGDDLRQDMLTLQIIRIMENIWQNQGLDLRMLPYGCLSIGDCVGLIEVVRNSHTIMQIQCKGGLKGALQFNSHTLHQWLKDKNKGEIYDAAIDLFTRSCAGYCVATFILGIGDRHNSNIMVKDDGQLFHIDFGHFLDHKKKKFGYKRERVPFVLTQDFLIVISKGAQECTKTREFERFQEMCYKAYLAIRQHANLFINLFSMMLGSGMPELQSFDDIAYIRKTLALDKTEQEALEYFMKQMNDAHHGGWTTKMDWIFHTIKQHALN
T1 sequence (P27986 whole entry partner, the tested form may be a part, canonical isoform): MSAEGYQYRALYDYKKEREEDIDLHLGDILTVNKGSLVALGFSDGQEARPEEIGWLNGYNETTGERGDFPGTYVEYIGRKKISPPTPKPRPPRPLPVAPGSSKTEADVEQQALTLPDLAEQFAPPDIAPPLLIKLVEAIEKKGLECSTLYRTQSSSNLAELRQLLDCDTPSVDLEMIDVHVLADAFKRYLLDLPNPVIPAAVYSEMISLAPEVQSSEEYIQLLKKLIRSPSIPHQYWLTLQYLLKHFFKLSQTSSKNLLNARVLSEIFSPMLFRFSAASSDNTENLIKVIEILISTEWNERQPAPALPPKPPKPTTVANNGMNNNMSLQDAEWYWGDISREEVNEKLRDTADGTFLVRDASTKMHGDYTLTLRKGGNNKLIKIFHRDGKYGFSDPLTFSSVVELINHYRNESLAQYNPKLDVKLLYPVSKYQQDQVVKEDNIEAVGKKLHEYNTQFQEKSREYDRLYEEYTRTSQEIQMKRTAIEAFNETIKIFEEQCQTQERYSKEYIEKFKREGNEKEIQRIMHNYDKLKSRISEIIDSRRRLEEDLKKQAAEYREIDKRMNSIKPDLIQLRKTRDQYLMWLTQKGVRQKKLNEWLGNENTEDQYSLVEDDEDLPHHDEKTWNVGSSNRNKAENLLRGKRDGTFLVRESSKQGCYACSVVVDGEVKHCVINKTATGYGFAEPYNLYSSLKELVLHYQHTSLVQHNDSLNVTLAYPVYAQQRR

On to `NCC(=O)N1CCN(c2cc(N3CCOCC3)nc(-n3c(C(F)F)nc4ccccc43)n2)CC1` [Example 1, 2-(2-difluoromethylbenzimidazol-1-yl)-4-(4-glycylpiperazin-1-yl)-6-morpholinopyrimidine], for which the pIC50 in assay [1] was about 8.00; on p110α Type Ia human PI3K, about 7.00.
